Reference: patent US20020137929A1, “1 - (3-heterocyclylphenyl) isothiourea, -isourea, -guanidine and -amidine herbicidal agents” (Intellectual Property Department, BASF Aktiengesellschaft, priority 1998, published 2002)

Legend:
AMBEL (Ragweed, Common) = assay: Preemergence herbicidal evaluation; format: in vivo, Ambrosia artemisifolia; conditions: rated 4-5 weeks after treatment
In short: (§1)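 In this greenhouse assay, monocot and dicot seeds are planted in soil and treated prior to emergence with an aqueous acetone spray (about 0.0156-0.500 kg/ha). Plants are assessed visually against control on a 0-9 scale after 4-5 weeks.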

GALAP (Galium) [1] = assay: Preemergence herbicidal evaluation; format: in vivo, Galium aparine; conditions: rated 4-5 weeks after treatment
In short: as §1

[2] = test system: TRZAWR (Wheat, Winter, cv Riband); assay: Preemergence herbicidal evaluation; format: in vivo, Triticum aestivum; conditions: rated 4-5 weeks after treatment
In short: as §1

ORYSAT (Rice, Tebonnet) = assay: Rice tolerance to post-transplant applications, flooded paddy conditions (Table III); format: in vivo, Oryza sativa, (L.) Tebonnet; conditions: in vivo
In short: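 Two ten-day-old Tebonnet seedlings transplanted into flooded silt loam (water 1.5 to 3 cm above soil); three days later the water surface was treated with compound in aqueous/acetone 50/50 at about 0.0313 to 0.500 kg/ha. Visual 0-9 injury rating versus control after three to four weeks in greenhouse.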

[3] = test system: SAGPY (Arrowhead (Pygmaea)); assay: Preemergence weed control under flooded paddy conditions; format: in vivo, Sagittaria pygmaea; conditions: rated 3-4 weeks after treatment
In short: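 Using flooded silt loam (water 1.5 to 3 cm deep), seeds sown in the top 0.5 cm were exposed preemergence to compound pipetted into the flood at about 0.0313 to 0.500 kg/ha. Effects were scored 0-9 by eye three to four weeks later.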

SETVI (Foxtail, Green) = assay: Postemergence herbicidal evaluation; format: in vivo, Setaria viridis; conditions: postemergence
In short: (§2)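 ~2-wk seedlings; postemergence spray, 40 psi; vehicle 1:1 acetone:water + 0.5% Tween 20; rate ≈0.0156–0.500 kg/ha; greenhouse hold; scored 4–5 wk after treatment, 0–9 scale vs control; repeat tests averaged.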

GALAP (Galium) [4] = assay: Postemergence herbicidal evaluation; format: in vivo, Galium aparine; conditions: postemergence
In short: as §2

CASOB (Sicklepod) = assay: Postemergence herbicidal evaluation; format: in vivo, Cassia obtusifolia; conditions: postemergence
In short: as §2

ABUTH (Velvetleaf) [5] = assay: Preemergence herbicidal evaluation; format: in vivo, Abutilon theophrasti; conditions: rated 4-5 weeks after treatment
In short: as §1

ABUTH (Velvetleaf) [6] = assay: Postemergence herbicidal evaluation; format: in vivo, Abutilon theophrasti; conditions: postemergence
In short: as §2

[7] = test system: GLXMAW (Soybean, Williams); assay: Preemergence herbicidal evaluation; format: in vivo, Glycine max, (L.) Merr. cv Williams; conditions: rated 4-5 weeks after treatment
In short: as §1

CYPIR (Rice Flatsedge) = assay: Preemergence weed control under flooded paddy conditions; format: in vivo, Cyperus iria; conditions: rated 3-4 weeks after treatment
In short: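 Seeds or propagules sown in silt loam kept flooded 1.5-3 cm; compounds in 50/50 acetone/water pipetted into flood water at about 0.0313 to 0.500 kg/ha. Greenhouse; visual 0-9 rating versus untreated control 3-4 weeks after treatment.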

ECHCG (Barnyardgrass) = assay: Preemergence herbicidal evaluation; format: in vivo, Echinochloa crus-galli; conditions: rated 4-5 weeks after treatment
In short: as §1

Structure (SMILES): COC(=O)C(C)OC(=O)CN1C(=O)CSC1=Nc1cc(-n2c(=O)cc(C(F)(F)F)n(C)c2=O)c(F)cc1Cl (stereo not shown) [Compound 116, 2-{{2-Chloro-5-[3,6-dihydro-3-methyl-2,6-dioxo-4-(trifluoromethyl)-1(2H)-pyrimidinyl]-4-fluorophenyl}imino}-4-oxo-3-thiazolidineacetic acid, ester with methyl lactate]
- Preemergence herbicidal rating AMBEL (AMBEL (Ragweed, Common); rate 0.0156 kg/ha): 0.0
- Preemergence herbicidal rating AMBEL (AMBEL (Ragweed, Common); rate 0.0313 kg/ha): 0.0
- Preemergence herbicidal rating AMBEL (AMBEL (Ragweed, Common); rate 0.0625 kg/ha): 2.0
- Preemergence herbicidal rating AMBEL (AMBEL (Ragweed, Common); rate 0.1250 kg/ha): 2.0
- Preemergence herbicidal rating AMBEL (AMBEL (Ragweed, Common); rate 0.2500 kg/ha): 1.0
- Preemergence herbicidal rating GALAP (GALAP (Galium) [1]; rate 0.0156 kg/ha): 0.0
- Preemergence herbicidal rating GALAP (GALAP (Galium) [1]; rate 0.0313 kg/ha): 0.0
- Preemergence herbicidal rating GALAP (GALAP (Galium) [1]; rate 0.0625 kg/ha): 0.0
- Preemergence herbicidal rating GALAP (GALAP (Galium) [1]; rate 0.1250 kg/ha): 0.0
- Preemergence herbicidal rating GALAP (GALAP (Galium) [1]; rate 0.2500 kg/ha): 7.0
- Preemergence herbicidal rating TRZAWR ([2]; rate 0.0156 kg/ha): 0.0
- Preemergence herbicidal rating TRZAWR ([2]; rate 0.0313 kg/ha): 0.0
- Preemergence herbicidal rating TRZAWR ([2]; rate 0.0625 kg/ha): 0.0
- Preemergence herbicidal rating TRZAWR ([2]; rate 0.1250 kg/ha): 0.0
- Preemergence herbicidal rating TRZAWR ([2]; rate 0.2500 kg/ha): 1.0
- ORYSAT herbicidal effect rating (rice tolerance) (ORYSAT (Rice, Tebonnet)): 4.0
- herbicidal effect rating, ORYSAT (rice tolerance) (ORYSAT (Rice, Tebonnet)): 2.0
- herbicidal effect rating, SAGPY ([3]; 0.0313 kg/ha): 2.0
- herbicidal effect rating, SAGPY ([3]; 0.0625 kg/ha): 3.0
- SAGPY herbicidal effect rating ([3]; 0.1250 kg/ha): 5.0
- SAGPY herbicidal effect rating ([3]; 0.2500 kg/ha): 6.0
- Herbicidal rating SETVI (SETVI (Foxtail, Green); rate 0.0158 kg/ha): 1.0
- Herbicidal rating SETVI (SETVI (Foxtail, Green); rate 0.0315 kg/ha): 3.0
- Herbicidal rating SETVI (SETVI (Foxtail, Green); rate 0.0630 kg/ha): 3.0
- Herbicidal rating GALAP (GALAP (Galium) [4]; rate 0.0158 kg/ha): 0.0
- Herbicidal rating GALAP (GALAP (Galium) [4]; rate 0.0315 kg/ha): 0.0
- Herbicidal rating GALAP (GALAP (Galium) [4]; rate 0.0630 kg/ha): 0.0
- Herbicidal rating CASOB (CASOB (Sicklepod); rate 0.0158 kg/ha): 1.0
- Herbicidal rating CASOB (CASOB (Sicklepod); rate 0.0315 kg/ha): 1.0
- Herbicidal rating CASOB (CASOB (Sicklepod); rate 0.0630 kg/ha): 1.0
- Preemergence herbicidal rating ABUTH (ABUTH (Velvetleaf) [5]; rate 0.0156 kg/ha): 0.0
- Preemergence herbicidal rating ABUTH (ABUTH (Velvetleaf) [5]; rate 0.0313 kg/ha): 0.0
- Preemergence herbicidal rating ABUTH (ABUTH (Velvetleaf) [5]; rate 0.0625 kg/ha): 4.0
- Preemergence herbicidal rating ABUTH (ABUTH (Velvetleaf) [5]; rate 0.1250 kg/ha): 9.0
- Preemergence herbicidal rating ABUTH (ABUTH (Velvetleaf) [5]; rate 0.2500 kg/ha): 9.0
- Herbicidal rating ABUTH (ABUTH (Velvetleaf) [6]; rate 0.0158 kg/ha): 9.0
- Herbicidal rating ABUTH (ABUTH (Velvetleaf) [6]; rate 0.0315 kg/ha): 9.0
- Herbicidal rating ABUTH (ABUTH (Velvetleaf) [6]; rate 0.0630 kg/ha): 9.0
- Preemergence herbicidal rating GLXMAW ([7]; rate 0.0156 kg/ha): 1.0
- Preemergence herbicidal rating GLXMAW ([7]; rate 0.0313 kg/ha): 1.0
- Preemergence herbicidal rating GLXMAW ([7]; rate 0.0625 kg/ha): 0.0
- Preemergence herbicidal rating GLXMAW ([7]; rate 0.1250 kg/ha): 1.0
- Preemergence herbicidal rating GLXMAW ([7]; rate 0.2500 kg/ha): 2.0
- herbicidal effect rating, CYPIR (CYPIR (Rice Flatsedge); 0.0313 kg/ha): 3.0
- herbicidal effect rating, CYPIR (CYPIR (Rice Flatsedge); 0.0625 kg/ha): 6.0
- CYPIR herbicidal effect rating (CYPIR (Rice Flatsedge); 0.1250 kg/ha): 7.0
- CYPIR herbicidal effect rating (CYPIR (Rice Flatsedge); 0.2500 kg/ha): 7.0
- Preemergence herbicidal rating ECHCG (ECHCG (Barnyardgrass); rate 0.0156 kg/ha): 0.0
- Preemergence herbicidal rating ECHCG (ECHCG (Barnyardgrass); rate 0.0313 kg/ha): 0.0
- Preemergence herbicidal rating ECHCG (ECHCG (Barnyardgrass); rate 0.0625 kg/ha): 0.0
- Preemergence herbicidal rating ECHCG (ECHCG (Barnyardgrass); rate 0.1250 kg/ha): 0.0
- Preemergence herbicidal rating ECHCG (ECHCG (Barnyardgrass); rate 0.2500 kg/ha): 0.0
